For the test, the system named is CD2F1 mice, L1210 leukemia ip, survival T/C. Nature of the test: NCI In Vivo Anticancer Drug Screen. Data for tumor model L1210 Leukemia (intraperitoneal) in CD2F1 (CDF1) mice. As to conditions: higher = longer survival. Summed up:
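Ratio T/C, where T is the treated-group value and C the vehicle-dosed control value, from mice implanted with a transplantable tumor.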

[1] abbreviates: endpoint: mean survival time, dose: 10.0 mg/kg/injection, schedule: Q04DX003 (ip), vehicle: saline with Tween-80.
Setting [2] is: endpoint: mean survival time, dose: 20.0 mg/kg/injection, schedule: Q04DX003 (ip), vehicle: saline with Tween-80.
Where [3] appears, read: endpoint: mean survival time, dose: 50.0 mg/kg/injection, schedule: Q01DX009 (ip), vehicle: saline with Tween-80.
[4] abbreviates: endpoint: mean survival time, dose: 100.0 mg/kg/injection, schedule: Q01DX009 (ip), vehicle: saline with Tween-80.
[5] abbreviates: endpoint: mean survival time, dose: 100.0 mg/kg/injection, schedule: Q04DX003 (ip), vehicle: saline with Tween-80.
Setting [6] is: endpoint: mean survival time, dose: 200.0 mg/kg/injection, schedule: Q01DX009 (ip), vehicle: saline with Tween-80.
Where [7] appears, read: endpoint: mean survival time, dose: 200.0 mg/kg/injection, schedule: Q04DX003 (ip), vehicle: saline with Tween-80.
[8] abbreviates: endpoint: mean survival time, dose: 12.5 mg/kg/injection, schedule: Q04DX002 (ip), vehicle: saline with Tween-80.
Setting [9] is: endpoint: mean survival time, dose: 25.0 mg/kg/injection, schedule: Q04DX002 (ip), vehicle: saline with Tween-80.
Setting [10] is: endpoint: mean survival time, dose: 50.0 mg/kg/injection, schedule: Q04DX002 (ip), vehicle: saline with Tween-80.

“And” between values parts separate entries of the source, which are not always exact repeats. Equal entries are not always repeated. Inconclusive results and toxic doses are left out.

As for `Nc1ccn(C2OC(COP(=O)(O)O)C(O)C2O)c(=O)n1` (configuration not stated), the T/C was 337 % of control (endpoint: mean survival time, dose: 4.0 mg/kg/injection, schedule: Q03HX024 (ip), vehicle: saline); 176 % of control (endpoint: mean survival time, dose: 8.0 mg/kg/injection, schedule: Q01DX008 (ip), vehicle: saline); 302 % of control (endpoint: mean survival time, dose: 8.0 mg/kg/injection, schedule: Q03HX024 (ip), vehicle: saline); 183 % of control (endpoint: mean survival time, dose: 16.0 mg/kg/injection, schedule: Q01DX008 (ip), vehicle: saline); 185 % of control (endpoint: mean survival time, dose: 16.0 mg/kg/injection, schedule: Q01DX009 (ip), vehicle: saline); 487 % of control (endpoint: mean survival time, dose: 16.0 mg/kg/injection, schedule: Q03HX024 (ip), vehicle: saline). The T/C reads like this: (endpoint: mean survival time, dose: 16.0 mg/kg/injection, schedule: Q03HX024 (oral), vehicle: saline) 228 % of control; (endpoint: mean survival time, dose: 32.0 mg/kg/injection, schedule: Q01DX008 (ip), vehicle: saline) 173 % of control; (endpoint: mean survival time, dose: 32.0 mg/kg/injection, schedule: Q01DX009 (ip), vehicle: saline) 215 % of control; (endpoint: mean survival time, dose: 32.0 mg/kg/injection, schedule: Q03HX024 (ip), vehicle: saline) 240 % of control; (endpoint: mean survival time, dose: 32.0 mg/kg/injection, schedule: Q03HX024 (oral), vehicle: saline) 266 % of control; (endpoint: mean survival time, dose: 64.0 mg/kg/injection, schedule: Q01DX001 (ip), vehicle: saline) 121 % of control. The T/C (endpoint: mean survival time, dose: 64.0 mg/kg/injection, schedule: Q01DX008 (ip), vehicle: saline) is 155 % of control; the T/C (endpoint: mean survival time, dose: 64.0 mg/kg/injection, schedule: Q01DX008 (oral), vehicle: saline) was 156 % of control; the T/C (endpoint: mean survival time, dose: 64.0 mg/kg/injection, schedule: Q01DX009 (ip), vehicle: saline) was 212 % of control; the T/C (endpoint: mean survival time, dose: 64.0 mg/kg/injection, schedule: Q03HX024 (oral), vehicle: saline) was 300 % of control; the T/C (endpoint: mean survival time, dose: 128.0 mg/kg/injection, schedule: Q01DX001 (ip), vehicle: saline) was 117 % of control; the T/C (endpoint: mean survival time, dose: 128.0 mg/kg/injection, schedule: Q01DX001 (oral), vehicle: saline) is 106 % of control. Further, the T/C (endpoint: mean survival time, dose: 128.0 mg/kg/injection, schedule: Q01DX008 (oral), vehicle: saline) is 167 % of control; the T/C (endpoint: mean survival time, dose: 128.0 mg/kg/injection, schedule: Q01DX009 (oral), vehicle: saline) was 155 % of control; the T/C (endpoint: mean survival time, dose: 128.0 mg/kg/injection, schedule: Q03HX024 (oral), vehicle: saline) was 155 % of control; the T/C (endpoint: mean survival time, dose: 128.0 mg/kg/injection, schedule: Q04DX003 (oral), vehicle: saline) was 120 % of control; the T/C (endpoint: mean survival time, dose: 256.0 mg/kg/injection, schedule: Q01DX001 (ip), vehicle: saline) was 112 % of control; the T/C (endpoint: mean survival time, dose: 256.0 mg/kg/injection, schedule: Q01DX001 (oral), vehicle: saline) is 107 % of control. For the same compound, the T/C by setting is: (endpoint: mean survival time, dose: 256.0 mg/kg/injection, schedule: Q01DX009 (oral), vehicle: saline) 172 % of control; (endpoint: mean survival time, dose: 256.0 mg/kg/injection, schedule: Q04DX003 (oral), vehicle: saline) 121 % of control; (endpoint: mean survival time, dose: 512.0 mg/kg/injection, schedule: Q01DX001 (oral), vehicle: saline) 109 % of control; (endpoint: mean survival time, dose: 512.0 mg/kg/injection, schedule: Q01DX009 (oral), vehicle: saline) 182 % of control; (endpoint: mean survival time, dose: 1024.0 mg/kg/injection, schedule: Q01DX001 (oral), vehicle: saline) 155 % of control; (endpoint: mean survival time, dose: 1024.0 mg/kg/injection, schedule: Q01DX009 (oral), vehicle: saline) 104 % of control. Further, the T/C (endpoint: mean survival time, dose: 1024.0 mg/kg/injection, schedule: Q04DX003 (oral), vehicle: saline) was 164 % of control.
`N#C[S-].N#C[S-].[NH-]CC[NH-].[Pt+4]`: the T/C reads like this: under setting [1], 97 % of control; under setting [2], 98 % of control; (endpoint: mean survival time, dose: 40.0 mg/kg/injection, schedule: Q04DX003 (ip), vehicle: saline with Tween-80) 106 % of control.
For `CC(=O)NC(CSCc1c2ccccc2c(C)c2c1ccc1ccccc12)C(=O)O` (configuration not stated), the T/C is 103 % of control under setting [3]; 95 % of control under setting [4]; 93 % of control under setting [5]; 103 % of control under setting [6]; 90 % of control under setting [7].
Take `C/C=C/C(OC(C)=O)OC(C)=O`: the T/C under setting [4] was 97 % of control and the T/C under setting [6] is 103 % of control.
For `CCOC(=O)Cc1cnc(SC)nc1Nc1ccc(F)cc1`, the T/C was 90 % of control (endpoint: mean survival time, dose: 100.0 mg/kg/injection, schedule: Q01DX001 (ip), vehicle: saline with Tween-80) and 95 % of control (endpoint: mean survival time, dose: 200.0 mg/kg/injection, schedule: Q01DX001 (ip), vehicle: saline with Tween-80).
In the case of `CCOC(=O)/C(Cc1cc(Cl)nnc1Cl)=N\N`, the T/C under setting [8] is 113 % of control, the T/C under setting [9] was 98 % of control and the T/C under setting [10] was 87 % of control.
`O=C1CC2c3[nH]c4ccccc4c3CCN2C2=C1CCCC2` (configuration not stated): the T/C by setting is: under setting [5], 100 % of control; under setting [7], 103 % of control.
`CC12CCC(=O)C1O2` (configuration not stated): the T/C by setting is: under setting [8], 103 % of control; under setting [9], 100 % of control; under setting [10], 100 % of control.
`O=C(O)c1ccc(C(=O)O)c(C(=O)O)c1.[NH-]C1CCCCC1[NH-].[Pd+2]`: the T/C reads like this: (endpoint: mean survival time, dose: 9.36 mg/kg/injection, schedule: Q04DX003 (ip), vehicle: sodium bicarbonate) 98 % of control; (endpoint: mean survival time, dose: 18.75 mg/kg/injection, schedule: Q04DX003 (ip), vehicle: sodium bicarbonate) 101 % of control; (endpoint: mean survival time, dose: 75.0 mg/kg/injection, schedule: Q04DX003 (ip), vehicle: sodium bicarbonate) 101 % of control; (endpoint: mean survival time, dose: 150.0 mg/kg/injection, schedule: Q04DX003 (ip), vehicle: sodium bicarbonate) 101 % of control.
Regarding `COC1=C(N=[N+]=[N-])C(=O)C(OC)=C(N=[N+]=[N-])C1=O`, the T/C (endpoint: mean survival time, dose: 5.0 mg/kg/injection, schedule: Q01DX009 (ip), vehicle: saline with Tween-80) was 101 % of control; the T/C (endpoint: mean survival time, dose: 5.0 mg/kg/injection, schedule: Q04DX003 (ip), vehicle: saline with Tween-80) was 93 % of control; the T/C (endpoint: mean survival time, dose: 10.0 mg/kg/injection, schedule: Q01DX009 (ip), vehicle: saline with Tween-80) was 94 % of control; the T/C under setting [1] is 95 % of control; the T/C (endpoint: mean survival time, dose: 20.0 mg/kg/injection, schedule: Q01DX009 (ip), vehicle: saline with Tween-80) was 94 % of control; the T/C under setting [2] is 95 % of control.
On to `C=CCCCCCCCCC(=O)NCCN1CCOCC1`, for which the T/C under setting [3] was 100 % of control, the T/C under setting [4] is 96 % of control and the T/C under setting [6] was 88 % of control.
With `C=CC1CC(=O)N1` (configuration not stated), the T/C is, setting by setting: (endpoint: mean survival time, dose: 75.0 mg/kg/injection, schedule: Q01DX009 (ip), vehicle: saline) 102 % of control; (endpoint: mean survival time, dose: 75.0 mg/kg/injection, schedule: Q04DX003 (ip), vehicle: saline) 97 % of control; (endpoint: mean survival time, dose: 150.0 mg/kg/injection, schedule: Q01DX009 (ip), vehicle: saline) 103 % of control; (endpoint: mean survival time, dose: 150.0 mg/kg/injection, schedule: Q04DX003 (ip), vehicle: saline) 101 % of control; (endpoint: mean survival time, dose: 300.0 mg/kg/injection, schedule: Q01DX009 (ip), vehicle: saline) 103 % of control; (endpoint: mean survival time, dose: 300.0 mg/kg/injection, schedule: Q04DX003 (ip), vehicle: saline) 95 % of control.
As for `O=C1C=CC(n2cc(F)c(=O)[nH]c2=O)O1` (configuration not stated), the T/C reads like this: (endpoint: median survival time, dose: 6.25 mg/kg/injection, schedule: Q01DX009 (ip), vehicle: saline with Tween-80) 122 % of control; (endpoint: median survival time, dose: 6.25 mg/kg/injection, schedule: Q01DX009 (ip), vehicle: saline) 113 % of control and 115 % of control; (endpoint: median survival time, dose: 12.5 mg/kg/injection, schedule: Q01DX009 (ip), vehicle: saline) 121 % of control; (endpoint: median survival time, dose: 25.0 mg/kg/injection, schedule: Q01DX009 (ip), vehicle: saline) 122 % of control; (endpoint: median survival time, dose: 50.0 mg/kg/injection, schedule: Q01DX009 (ip), vehicle: saline) 150 % of control and 162 % of control; (endpoint: median survival time, dose: 100.0 mg/kg/injection, schedule: Q01DX009 (ip), vehicle: saline with Tween-80) 91 % of control. Also, for the setting “endpoint: median survival time, dose: 100.0 mg/kg/injection, schedule: Q01DX009 (ip), vehicle: saline”, the T/C is 96 % of control and 108 % of control.
